According to publication PMC4860888 (Theranostics, 2016):

Legend:
HDAC = conditions: cited from earlier work
[1] = test system: AK7 murine mesothelioma cells; type: in vivo, C57Bl/6 mice; conditions: decitabine 4 µg/g i.p. days 7 and 9

Structure (SMILES)	Fold less potent than (R)-trichostatin A (HDAC) [fold]	Anti-tumor effect by itself [1]
CC(C=CC(=O)NO)=C[C@H](C)C(=O)c1ccc(N(C)C)cc1 [(S)-isomer]	70	–
Nc1ncn([C@H]2C[C@H](O)[C@@H](CO)O2)c(=O)n1 [decitabine]	–	no anti-tumor effect
